Laboratory results from US7922998B2, “Gastrin releasing peptide compounds” (Bracco Imaging S.p.A., priority 2003, dated 2011).
“Also recorded” adds a separate entry of the source.

Tests used:
[1] = test system: PC3 tumor-bearing nude mouse model; assay: Radiotherapy Short Term Efficacy Study; assay type: in vivo
Experimental: • Radiotherapy studies were performed using the PC3 tumor-bearing nude mouse model. […] (n=12 for each treatment group for up to 30 days, and n=36 for the pooled untreated control group for up to 31 days). […] The subjects were housed in a barrier environment for the duration of the study. Body weight and tumor size (by caliper measurement) were collected on each subject 3 times per week for the duration of the study. Criteria for early termination included: death; loss of total body weight (TBW) equal to or greater than 20%; tumor size equal to or greater than 2 cm^3.

PC3 cells = assay: Internalization & Efflux Assay in PC3 cells; assay type: cell-based, human; conditions: for Internalisation (40 minutes): 40 min at 37° C., Lu-177 complexes (125I-BBN as comparator); for Efflux (2 h): percent efflux 2 h after loading 40 min at 37° C., Lu-177 complexes
Experimental: • These studies were conducted in a 96-well plate. […] Incubations were stopped by the addition of 200 μl of ice-cold binding buffer. Plates were washed twice with binding buffer. To remove surface-bound radioligand, the cells were incubated with 0.2M acetic acid (in saline), pH 2.8 for 2 min. Plates were centrifuged and the acid wash media were collected to determine the amount of radioactivity which was not internalized. The cells were collected to determine the amount of internalized ^125I-BBN, and all samples were analyzed in the gamma counter. Data for the internalization assay was normalized by comparing counts obtained at the various time points with the counts obtained at the final time point (T40 min). • For the efflux studies, after loading the PC3 cells with ^125I-BBN or radiolabeled compounds of the invention for 40 min at 37° C., the unbound material was filtered, and the % of internalization was determined as above. The cells were then resuspended in binding buffer at 37° C. for up to 3 h.

NMB-R = target: T1, NMB-R (Rattus norvegicus, UniProt P24053); assay: Competition with 125I-NMB for NMB-R in C6 cells (Example LX); assay type: binding, rodent; conditions: for receptor subtype preference (GRP-R / NMB-R): in words, from IC50 with 125I-NMB (C6) and 125I-BBN (PC3), cut off 10× the IC50 of [Tyr4]-BBN
T1 construct: C6, an NMB-R expressing rodent glioblastoma cell line; host or cells: C6 glioma cells, intact and plated
T1 sequence (P24053 1-390): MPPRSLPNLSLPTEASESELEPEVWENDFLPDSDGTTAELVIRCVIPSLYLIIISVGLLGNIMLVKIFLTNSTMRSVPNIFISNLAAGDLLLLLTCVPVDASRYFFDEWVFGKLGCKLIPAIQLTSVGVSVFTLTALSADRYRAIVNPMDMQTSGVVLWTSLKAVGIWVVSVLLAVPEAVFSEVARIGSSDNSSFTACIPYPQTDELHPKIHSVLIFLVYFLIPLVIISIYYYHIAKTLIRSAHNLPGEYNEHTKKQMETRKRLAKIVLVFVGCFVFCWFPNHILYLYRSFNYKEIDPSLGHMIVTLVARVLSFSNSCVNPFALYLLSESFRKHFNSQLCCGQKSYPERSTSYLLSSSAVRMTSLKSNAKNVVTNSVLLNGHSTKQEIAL
Experimental: Two cell lines, C6, an NMB-R expressing rodent glioblastoma cell line and PC3, a GRP-R expressing human prostate cancer cell line, were used in this assay. The affinity of various unlabeled compounds for each receptor subtype (NMB-R and GRP-R) was determined indirectly by measuring its ability to compete with the binding of ^125I-NMB or ^125I-BBN to its corresponding receptors in C6 and PC3 cells.
Cells for the assays were plated at a concentration of 9.6×10^4/well in 48 well poly-lysine coated plates (Beckton Dickinson Biocoat).
• Custom made ^125I-[Tyr^0]NMB, >2.0 Ci/μmole (Amersham Life Science) [^125I-NMB] and commercially available ^125I-[Tyr^4]BBN, >2.0 Ci/μmole (Perkin Elmer Life Science) [^125I-BBN] were used as radioligands.
• Using a 48-well plate assay system (for C6 study) competition experiments were performed using ^125I-NMB. […] Selection of compounds for the assay was based on linker subtype.
The binding parameters obtained from the studies were analyzed using a one-site competition non-linear regression analysis with GraphPad Prism. The relative affinity of various compounds for NMB-R in C6 cells were compared with those obtained using commercially available [Tyr^4]-BBN and [Tyr^0]-NMB. To distinguish the GRP-R preferring compounds from NMB-R plus GRP-R preferring compounds, IC50 values obtained for each compound was compared with those obtained from [Tyr^0]-BBN with ^125I-NMB on C6 cells.

[2] = test system: PC3 tumor-bearing nude mice; assay type: in vivo, mouse; conditions: in words; for uptake in the tumor compared with control: 1 and 24 h
Experimental: • Low dose pharmacokinetic studies (e.g., biodistribution studies) were performed using the below-identified compounds of the invention in xenografted, PC3 tumor-bearing nude mice ([Ncr]-Foxn1). In all studies, mice were administered 100 μL of ^177Lu-labeled test compound at 200 μCi/kg, i.v., with a residence time of 1 and 24 h per group (n=3-4). Tissues were analyzed in an LKB 1282 CompuGamma counter with appropriate standards.

[3] = test system: PC3 tumor-bearing nude mouse model; assay: Radiotherapy Long Term Efficacy Study; assay type: in vivo; conditions: 177Lu labeled, 30 mCi/kg, up to 120 days; vs same controls; FIG. 15B
GRP-R = target: T2, GRP-R (Homo sapiens, UniProt P30550); assay: Competition assay of modified BBN analogs with 125I-BBN for GRP-R in PC3 cells (Example LXI); assay type: binding; conditions: in words
T2 construct: host or cells: PC3 human prostate cancer cells, intact and plated
T2 sequence (P30550 whole entry): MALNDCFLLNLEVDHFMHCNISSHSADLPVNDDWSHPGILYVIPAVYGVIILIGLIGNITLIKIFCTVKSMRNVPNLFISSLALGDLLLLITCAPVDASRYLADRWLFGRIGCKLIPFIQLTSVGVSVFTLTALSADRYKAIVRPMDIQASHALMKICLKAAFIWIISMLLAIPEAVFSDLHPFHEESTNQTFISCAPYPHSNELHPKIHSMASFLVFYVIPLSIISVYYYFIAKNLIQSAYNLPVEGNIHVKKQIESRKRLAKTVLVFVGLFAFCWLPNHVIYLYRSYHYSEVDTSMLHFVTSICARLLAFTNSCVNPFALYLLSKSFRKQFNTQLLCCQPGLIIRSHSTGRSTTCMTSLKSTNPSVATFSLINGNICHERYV
Experimental: • PC3 cell lines were obtained from ATCC(CRL-1435) and cultured in RPMI 1640 (ATCC) supplemented with 2 mM L-glutamine, 1.5 g/L Sodium bicarbonate, 10 mM HEPES and 10% FBS. […] PC3 cells for the assays were plated at a concentration of 2.0×10^4 cells/well in a 96-well white/clear bottom plates (Falcon Optilux-I). Plates were used for the assays on day 2 of the post-plating.
• RPMI 1640 (ATCC) containing 25 mM HEPES, 0.2% BSA fraction V, 1.0 mM AEBSF (CAS #3087-99-7) and 0.1% Bacitracin (CAS #1405-87-4), pH 7.4.
• ^125I-BBN (Cat # NEX258) was obtained from PerkinElmer Life Sciences.
• All compounds tested were dissolved in binding buffer and appropriate dilutions were also done in binding buffer. PC3 cells for assay were seeded at a concentration of 2.0×10^4/well either in 96-well black/clear collagen I cellware plates (Beckton Dickinson Biocoat). Plates were used for binding studies on day 2 post-plating. The plates were checked for confluency (>90% confluent) prior to assay. […] The studies were conducted with an assay volume of 75 μl per well. Triplicate wells were used for each data point. After the addition of the appropriate solutions, plates were incubated for 1 hour at 4° C. Incubation was ended by the addition of 200 uL of ice-cold incubation buffer. Plates were washed 5 times and blotted dry. Radioactivity was detected using either a LKB CompuGamma counter or a microplate scintillation counter.

[4] = 177Lu labeled, 30 mCi/kg, up to 30 days, vs untreated and vs DO3A-monoamide-Aoc-QWAVGHLM-NH2 control, FIG. 15A
[5] = Table 10, class cut off 10x the IC50 of [Tyr4]-BBN with 125I-NMB on C6 cells, yes or dash

CSCC[C@H](NC(=O)[C@H](CC(C)C)NC(=O)[C@H](Cc1c[nH]cn1)NC(=O)CNC(=O)[C@@H](NC(=O)[C@H](C)NC(=O)[C@H](Cc1c[nH]c2ccccc12)NC(=O)[C@H](CCC(N)=O)NC(=O)CC[C@@H](C)[C@H]1CC[C@H]2[C@@H]3CC[C@@H]4C[C@@H](NC(=O)CNC(=O)CN5CCN(CC(=O)O)CCN(CC(=O)O)CCN(CC(=O)O)CC5)CC[C@]4(C)[C@H]3C[C@H](O)[C@]12C)C(C)C)C(N)=O [Compound L63, N-[(3β,5β,12α)-3-[[[[[4,7,10-Tris(carboxymethyl)-1,4,7,10-tetraazacyclododec-1-yl]acetyl]amino]acetyl]amino]-12-hydroxy-24-oxocholan-24-yl]-L-glutaminyl-L-tryptophyl-L-alanyl-L-valyl-glycyl-L-histidyl-L-leucyl-L-methioninamide]
survival [1, 4]: increased survival
Internalisation (40 minutes) (PC3 cells): 64%
Efflux (2 h) (PC3 cells): 0%
GRP-R & NMB-R (binds both with similar affinity) (NMB-R; [5]): yes
receptor subtype preference (GRP-R / NMB-R) (NMB-R): dual affinity for both GRP-R and NMB-R
uptake in the mouse pancreas compared with control [2]: much higher
uptake in the tumor compared with control [2]: high tumour uptake
distribution of radioactivity in the blood, liver and kidneys compared with control ([2]; vs DO3A-monoamide-Aoc-QWAVGHLM-NH2): increased blood and liver values at early times

CSCC[C@H](NC(=O)[C@H](CC(C)C)NC(=O)[C@H](Cc1c[nH]cn1)NC(=O)CNC(=O)[C@@H](NC(=O)[C@H](C)NC(=O)[C@H](Cc1c[nH]c2ccccc12)NC(=O)[C@H](CCC(N)=O)NC(=O)CC[C@@H](C)[C@H]1CC[C@H]2[C@@H]3[C@H](O)C[C@@H]4C[C@@H](NC(=O)CNC(=O)CN5CCN(CC(=O)O)CCN(CC(=O)O)CCN(CC(=O)O)CC5)CC[C@]4(C)[C@H]3C[C@H](O)[C@]12C)C(C)C)C(N)=O [Compound L64, N-[(3β,5β,7α,12α)-3-[[[[[4,7,10-Tris(carboxymethyl)-1,4,7,10-tetraazacyclododec-1-yl]acetyl]amino]acetyl]amino]-7,12-dihydroxy-24-oxocholan-24-yl]-L-glutaminyl-L-tryptophyl-L-alanyl-L-valyl-glycyl-L-histidyl-L-leucyl-L-methioninamide]
survival [1, 4]: increased survival
survival [3]: significantly increased survival
Internalisation (40 minutes) (PC3 cells): 69%
Efflux (2 h) (PC3 cells): 20%
GRP-R & NMB-R (binds both with similar affinity) (NMB-R; [5]): yes
receptor subtype preference (GRP-R / NMB-R) (NMB-R): dual affinity for both GRP-R and NMB-R
uptake in the mouse pancreas compared with control [2]: much higher
uptake in the tumor compared with control [2]: much higher

DO3A-Gly-Abz-4-Gln-Trp-Ala-Val-Gly-His-Phe-Leu-NH2 [Compound L300]
competition / activity at GRP-R (GRP-R): high activity at the GRP-R

DO3A-monoamide-8-amino-octanoic acid-BBN (7-14) [reference compound]
Internalisation (40 minutes) (PC3 cells): 89%
Efflux (2 h) (PC3 cells): 28%

DO3A-monoamide-N-4-aminoethyl-N-1-piperazineacetic acid-BBN(7-14) [Compound L89]
GRP-R (preferentially binds GRP-R) (NMB-R; [5]): yes
receptor subtype preference (GRP-R / NMB-R) (NMB-R): GRP-R selectivity

N,N-dimethylglycine-Ser-Cys(Acm)-Gly-Asp-8-amino-3,6-dioxaoctanoic acid-BBN(7-14) [Compound L3]
GRP-R & NMB-R (binds both with similar affinity) (NMB-R; [5]): yes

N,N-dimethylglycine-Ser-Cys(Acm)-Gly-N-1-piperazineacetic acid-8-amino-3,6-dioxaoctanoic acid-BBN(7-14) [Compound L36]
GRP-R & NMB-R (binds both with similar affinity) (NMB-R; [5]): yes

N,N-dimethylglycine-Ser-Cys(Acm)-Gly-N-4-aminoethyl-N-1-piperazineacetic acid-Ser-BBN(7-14) [Compound L28]
GRP-R & NMB-R (binds both with similar affinity) (NMB-R; [5]): yes

N-[4-[[[[4,7,10-Tris(carboxymethyl)-1,4,7,10tetraazacyclododec-1-yl]acetyl]glycyl]amino]3-chlorobenzoyl]L-glutaminyl-L-tryptophyl-1-alanyl-L-valyl-glycyl-L-histidyl-L-leucyl-L-methioninamide [Compound L241]
GRP-R & NMB-R (binds both with similar affinity) (NMB-R; [5]): yes

N-[4-[[[[4,7,10-Tris(carboxymethyl)-1,4,7,10tetraazacyclododec-1-yl]acetyl]glycyl]amino]-3-methoxybenzoyl]-L-glutaminyl-L-tryptophyl-1-alanyl-L-valyl-glycyl-L-histidyl-L-leucyl-L-methioninamide [Compound L240]
receptor subtype preference (GRP-R / NMB-R) (NMB-R): selective affinity to GRP-R

N-[4-[[[[[4,7,10-Tris(carboxymethyl)-1,4,7,10-tetraazacyclododec-1-yl]acetyl]amino]acetyl]amino]benzoyl]-L-glutaminyl-L-tryptophyl-L-alanyl-L-valyl-glycyl-L-histidyl-L-leucyl-L-methioninamide [Compound L70]
survival ([1]; mouse, in vivo): increased survival
survival [3]: significantly increased survival
Internalisation (40 minutes) (PC3 cells): 70%
Efflux (2 h) (PC3 cells): 12%
GRP-R & NMB-R (binds both with similar affinity) (NMB-R; [5]): yes
receptor subtype preference (GRP-R / NMB-R) (NMB-R): dual affinity

N-[(3β,5β,12α)-3-[[[4,7,10-Tris(carboxymethyl)-1,4,7,10-tetraazacyclododec-1-yl]acetyl]amino]-4-aminobenzoyl-glycyl-L-glutaminyl-L-tryptophyl-L-alanyl-L-valyl-glycyl-L-histidyl-L-leucyl-L-methioninamide [Compound L204]
Receptor preference in words (cell spanning the GRP-R and GRP-R & NMB-R columns) (NMB-R; Table 10): preference to NMB-R
GRP-R & NMB-R (binds both with similar affinity) (NMB-R; [5]): yes
receptor subtype preference (GRP-R / NMB-R) (NMB-R): selective affinity to NMB-R; also recorded: favor the NMB subtype

N-[(3β,5β,12α)-3-[[[4,7,10-Tris(carboxymethyl)-1,4,7,10-tetraazacyclododec-1-yl]acetyl]amino]-glycyl-4-aminobenzoyl-L-glutaminyl-L-tryptophyl-L-alanyl-L-valyl-glycyl-L-histidyl-L-phenylalanyl-L-methioninamide [Compound L228]
competition / activity at GRP-R (GRP-R): maintains GRP-R activity

N-[(3β,5β,12α)-3-[[[4,7,10-Tris(carboxymethyl)-1,4,7,10-tetraazacyclododec-1-yl]acetyl]amino]-glycyl-4-aminobenzoyl-L-glutaminyl-L-tryptophyl-L-alanyl-glycyl-L-histidyl-L-phenylalanyl-L-leucinamide [Compound L224]
competition / activity at GRP-R (GRP-R): complete loss of binding

N-[(3β,5β,12α)-3-[[[4,7,10-Tris(carboxymethyl)-1,4,7,10-tetraazacyclododec-1-yl]acetyl]amino]-glycyl-4-aminobenzoyl-L-leucyl-L-tryptophyl-L-alanyl-L-valinyl-glycyl-L-serinyl-L-phenylalanyl-L-methioninamide [Compound L225]
competition / activity at GRP-R (GRP-R): reduces competition at the GRP-R

N-[(3β,5β,12α)-3-[[[[[4,7,10-Tris(carboxymethyl)-1,4,7,10-tetraazacyclododec-1-yl]acetyl]amino]acetyl]amino]-4-hydrazinobenzoyl-L-glutaminyl-L-tryptophyl-L-alanyl-L-valyl-glycyl-L-histidyl-L-leucyl-L-methioninamide [Compound L202]
GRP-R & NMB-R (binds both with similar affinity) (NMB-R; [5]): yes

N-[(3β,5β,12α)-3-[[[[[4,7,10-Tris(carboxymethyl)-1,4,7,10-tetraazacyclododec-1-yl]acetyl]amino]acetyl]amino]-[4′-Amino-2′-methyl biphenyl-4-carboxyl]-L-glutaminyl-L-tryptophyl-L-alanyl-L-valyl-glycyl-L-histidyl-L-leucyl-L-methioninamide [Compound L206]
GRP-R & NMB-R (binds both with similar affinity) (NMB-R; [5]): yes

N-[[4,7,10-Tris(carboxymethyl)-1,4,7,10-tetraazacyclododec-1-yl]acetyl]glycyl-4-piperidinecarbonyl-L-glutaminyl-L-tryptophyl-L-alanyl-L-valyl-glycyl-L-histidyl-L-leucyl-L-methioninamide [Compound L74]
GRP-R & NMB-R (binds both with similar affinity) (NMB-R; [5]): yes
